The source of these data is ChEMBL document CHEMBL3351924, “Detailed analysis and follow-up studies of a high-throughput screening for indoleamine 2,3-dioxygenase 1 (IDO1) inhibitors” (Eur J Med Chem, 2014).

The target of series [1] is T1, Indoleamine 2,3-dioxygenase 1 (Homo sapiens, UniProt P14902). In words: Inhibition of IDO1 (unknown origin) using L-tryptophan substrate incubated for 60 mins by HPLC. The following applies: read-out: IC50.
In series [2] the target is Indoleamine 2,3-dioxygenase 1 (Mus musculus, UniProt P28776). In words: Inhibition of mouse IDO1 expressed in mouse P815B cells using L-tryptophan substrate incubated for 18 hrs by HPLC based cellular assay. The series is classed as cell-based.
Sequence of Indoleamine 2,3-dioxygenase 1 (Mus musculus, UniProt P28776) (P28776 whole entry): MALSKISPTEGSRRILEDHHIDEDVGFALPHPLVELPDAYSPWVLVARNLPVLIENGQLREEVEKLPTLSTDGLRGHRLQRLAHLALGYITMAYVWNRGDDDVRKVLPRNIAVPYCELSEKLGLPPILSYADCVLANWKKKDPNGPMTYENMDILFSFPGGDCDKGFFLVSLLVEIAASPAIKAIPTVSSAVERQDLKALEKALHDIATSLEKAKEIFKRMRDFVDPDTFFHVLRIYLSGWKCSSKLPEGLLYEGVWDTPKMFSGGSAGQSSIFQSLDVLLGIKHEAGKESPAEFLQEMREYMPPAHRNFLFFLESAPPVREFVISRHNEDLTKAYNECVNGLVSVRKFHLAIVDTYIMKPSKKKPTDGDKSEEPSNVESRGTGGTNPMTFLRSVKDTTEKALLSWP
Series [3] addresses Tryptophan 2,3-dioxygenase (Mus musculus, UniProt P48776). In words: Inhibition of mouse TDO expressed in mouse P815B cells using L-tryptophan substrate incubated for 24 hrs by HPLC based cellular assay. It counts as cell-based.
Series [4] in a line: Cytotoxicity against mouse P815B cells after 24 hrs by MTS/PMS assay.
Series [5] addresses T1, Indoleamine 2,3-dioxygenase 1. In words: Inhibition of IDO1 (unknown origin) using L-tryptophan substrate incubated for 60 mins in presence of 5 mM GSH by HPLC.
Series [6] is described as follows: Solubility of the compound in pH 6.5 phosphate buffer containing 5% DMSO. As to conditions: phosphate buffer containing 5% DMSO; call rule not given here.
For series [7], the target named is T1, Indoleamine 2,3-dioxygenase 1. Description: Inhibition of IDO1 (unknown origin) using L-tryptophan substrate incubated for 60 mins in presence of 0.01% Triton-X by HPLC. As to conditions: read-out: IC50.

Structures are written as SMILES. Values after ≈ are worked out from the molar mass of the structure shown.

T1 sequence (P14902 whole entry): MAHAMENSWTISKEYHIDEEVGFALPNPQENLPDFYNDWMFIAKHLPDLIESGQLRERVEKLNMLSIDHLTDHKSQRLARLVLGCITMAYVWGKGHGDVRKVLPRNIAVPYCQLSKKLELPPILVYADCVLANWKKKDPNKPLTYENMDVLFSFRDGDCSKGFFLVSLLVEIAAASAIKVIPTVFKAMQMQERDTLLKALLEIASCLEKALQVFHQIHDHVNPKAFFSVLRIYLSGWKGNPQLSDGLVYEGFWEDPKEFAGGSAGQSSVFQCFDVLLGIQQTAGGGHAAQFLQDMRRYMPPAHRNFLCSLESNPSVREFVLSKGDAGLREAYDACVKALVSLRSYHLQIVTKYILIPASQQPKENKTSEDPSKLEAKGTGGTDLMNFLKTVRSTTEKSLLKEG
Sequence of Tryptophan 2,3-dioxygenase (P48776 whole entry): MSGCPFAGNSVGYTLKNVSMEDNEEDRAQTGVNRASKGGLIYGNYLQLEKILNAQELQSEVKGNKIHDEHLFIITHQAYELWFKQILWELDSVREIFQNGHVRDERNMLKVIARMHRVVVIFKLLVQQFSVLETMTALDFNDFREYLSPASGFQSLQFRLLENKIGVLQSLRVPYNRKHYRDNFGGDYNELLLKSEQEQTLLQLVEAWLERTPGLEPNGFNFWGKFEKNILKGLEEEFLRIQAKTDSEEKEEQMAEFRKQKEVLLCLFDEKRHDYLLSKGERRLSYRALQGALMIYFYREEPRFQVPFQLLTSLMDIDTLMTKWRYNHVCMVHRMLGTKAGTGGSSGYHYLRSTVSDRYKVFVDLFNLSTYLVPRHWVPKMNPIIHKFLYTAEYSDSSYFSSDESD

Turning to `COC(=O)/C(C#N)=C(\C#N)c1ccc(Br)o1`, the half-maximal inhibitory concentration (IC50) in series [1] was 0.71 µM; in series [2] (p815b) it was “Not Active”; in series [3] (p815b), “Not Active”; in series [5] it was 7.1 µM. In series [4] (P815B cells), this molecule returned a CC50 at 24 h of 5 µM. For the same molecule, in series [6], the solubility was found to be 100 µM (≈ 28.1 µg/mL).

On to `N#CC(C#N)=C1c2cc(S(N)(=O)=O)cc([N+](=O)[O-])c2-c2c1cc(S(N)(=O)=O)cc2[N+](=O)[O-]`, for which the IC50 was 1 µM in series [1]; 0.96 µM in series [7]; “Not Active” in series [2] (p815b); “Not Active” in series [3] (p815b); 1.6 µM in series [5]. The molecule further gave a CC50 at 24 h in series [4] (P815B cells) of over 25 µM. Further, the solubility in series [6] was determined as 250 µM (≈ 119 µg/mL).

Consider `COC(=O)/C(C#N)=C1/C(=O)Nc2ccccc21`, for which the IC50 in series [1] is 1.8 µM; in series [2] (p815b), “Not Active”; in series [3] (p815b) it was “Not Active”; in series [5], 130 µM. In series [4] (P815B cells), this molecule registered a CC50 at 24 h of over 25 µM. The molecule further showed a solubility in series [6] of 100 µM (≈ 22.8 µg/mL).

Regarding `N#CC(C(=O)Nc1cccc(C(F)(F)F)c1)C(=S)Nc1ccccc1Cl` (centres undefined), the IC50 in series [1] was 7 µM; in series [7], 6.3 µM; in series [2] (p815b), “Not Active”; in series [3] (p815b), “Not Active”; in series [5], 71 µM. Moreover, the CC50 at 24 h in series [4] (P815B cells) is over 25 µM. In series [6], this molecule showed a solubility of 1000 µM (≈ 398 µg/mL).

`CCOC(=O)c1ccc(-n2sccc2=O)cc1`: the IC50 in series [1] was 15 µM; in series [7], 11 µM; in series [2] (p815b) it was “Not Active”; in series [3] (p815b), “Not Active”; in series [5], 100 µM. The molecule also registered a CC50 at 24 h in series [4] (P815B cells) of 10 µM. For the same molecule, the solubility in series [6] is 500 µM (≈ 125 µg/mL).

On to `Cc1ccc(-n2nnnc2C/C=N/Nc2ccc(Cl)cc2)cc1`, for which the IC50 in series [1] was determined as 54 µM; in series [7], 53 µM; in series [2] (read-out: IC50), 0.34 µM; in series [3] (read-out: IC50), 4.2 µM; in series [5], 31 µM. This molecule also showed a half-maximal cytotoxic concentration (CC50) at 24 h in series [4] (P815B cells) of 10 µM. Moreover, the solubility in series [6] was determined as 12.5 µM (≈ 4.08 µg/mL).

`O=c1ccsn1-c1cccc(Cl)c1F`: the IC50 was 11 µM in series [1]; 4.8 µM in series [7]; “Not Active” in series [2] (p815b); “Not Active” in series [3] (p815b); 200 µM in series [5]. In series [4] (P815B cells), this molecule registered a CC50 at 24 h of 10 µM. In series [6], the solubility was 1000 µM (≈ 230 µg/mL).

Take `CC(=O)N1CCN(c2ccc(OCC3COC(Cn4ccnc4)(c4ccc(Cl)cc4Cl)O3)cc2)CC1` (centres undefined) [KETOCONAZOLE]: the IC50 is 32 µM in series [1], 25 µM in series [7], “Not Active” in series [2] (p815b) and “Not Active” in series [3] (p815b). The molecule also gave a 50% cytotoxic concentration (CC50) at 24 h in series [4] (P815B cells) of 25 µM. The molecule further came in with a solubility in series [6] of 100 µM (≈ 53.1 µg/mL).

As for `Clc1ccc(COC(Cn2ccnc2)c2ccc(Cl)cc2Cl)c(Cl)c1` (centres undefined) [MICONAZOLE], the IC50 in series [1] is 6.7 µM; in series [7], 3.8 µM; in series [2] (p815b) it was “Not Active”; in series [3] (p815b) it was “Not Active”. Besides, it took 10 µM to reach half-maximal cytotoxicity in series [4] (p815b) (CC50 at 24 h). The molecule also gave a solubility in series [6] of 10 µM (≈ 4.16 µg/mL).

For orientation: IC50 means the concentration needed to halve the response being measured. As usually defined, the CC50 is the concentration giving 50% cytotoxicity. A high value points to lower toxicity to the cells. A word on the solubility: it is the concentration that dissolves in the medium under given conditions. High values mean much dissolved substance, low ones little dissolved substance.
